Columns and labels:
HCT116 MAP3K1 WT cells = assay: PrestoBlue growth inhibition assay; assay type: cell-based; details: Homo sapiens, HCT-116, 72 h
From the text: (§1) To investigate the target dependency of 51-106 activity, MAP3K1 was genetically knocked out (KO) in HCT116 cells using CRISPR-Cas9 technology (Gene Editing and Screening Core Facility, Memorial Sloan Kettering Cancer Center). The HCT116 cell line was chosen because it is predominantly diploid, allowing for a more predictable outcome when utilizing CRISPR technology compared with cell lines with aneuploidy. […] Western blot analysis confirmed the absence of MAP3K1 protein expression in KO cells compared to non-targeting control (NTC) MAP3K1 wild-type (WT) cells (Figure 3C). The MAP3K1 primary antibody used binds to residues 50 and 100 of the N-terminus of MAP3K1. HCT116 MAP3K1 WT and MAP3K1 KO cells were subjected to PrestoBlue growth inhibition assay with 51-106 treatment. […] Further optimization of 51-106 and/or the use of emerging methods such as DNA-encoded library based screens followed by machine learning (DEL-ML) along with a comprehensive suite of biophysical and biochemical screens should be employed to develop a MAP3K1 chemical probe.
(§2) A suspension of in 90 μL media was plated per well in clear, flat-bottomed, sterile, 96-well tissue culture plates (Cat# 12-565-438; Fisher Scientific, Waltham, MA, USA). The cells were allowed to adhere overnight in a humidified 5% CO2 incubator at 37 °C. Drug working solutions were prepared from 10 mM DMSO (Cat# BP231; Fisher Scientific) stocks. Drugs were added in 6 dilutions in triplicates. Ten μL of the working solution was added to each well in the plate to yield a final concentration of 20—0.63 μM drug in 1% DMSO. Blank DMSO controls were also included. […] Fluorescence (Ex 560, Em 590) was measured on a plate reader (Spectramax M5e; Molecular Devices) to determine T0. […] Fluorescence was measured on a plate reader. Wells with 1% DMSO were used to determine T100. % Growth was calculated as [(Fluorescence read of a well − T0)/(T100 − T0)] ∗ 100. The data were plotted using Prism V 9.1.0, and the IC50 values were determined using a four-parameter Logistic Curve Fitting function.

HCT116 MAP3K1 KO cells = assay: PrestoBlue growth inhibition assay; assay type: cell-based
From the text: as §1, §2

[1] = tested on: TNFα-induced, MAP3K1-mediated IKKβ phosphorylation; assay: AlphaLISA phospho-IKKβ / total IKKβ assay in MiaPaCa2 cells; assay type: cell-based, Human; details: 20, 10, 5 μM, 30 min pretreatment, 10 ng/mL TNFα
From the text: MAP3K1 was previously shown to phosphorylate IKKβ [12] and regulate NF-κB signaling. Therefore, we validated the ability of 51-106 to inhibit MAP3K1 by probing the phosphorylation status of the known substrate, IKKβ, using an AlphaLISA assay. The pancreatic cancer cells (MiaPaCa2) were subjected to a 30-min pretreatment with varying concentrations of 51-106, followed by TNFα stimulation to induce IKKβ phosphorylation. Following a 15-min stimulation, the levels of phospho-IKKβ and total IKKβ were quantified. […] (Figure 3A). Next, we evaluated the efficacy of 51-106 in a cell-based reporter assay utilizing a HeLa cell line that specifically responds to TNFα induced expression of a luciferase reporter gene that is under the control of an NF-κB response element.
A suspension of MiaPaCa2 cells (2 × 10^5/well) in 200 μL media was plated in a flat, clear-bottomed, sterile, 48-well tissue culture plate (Cat# 353230; Corning; Corning, NY, USA). The cells were allowed to attach to the plate for ~8 h in a humidified 5% CO2 incubator at 37 °C. […] Phospho-IKKβ levels were normalized to total […], and fold change was calculated compared to DMSO treatment. […] The statistical significance between groups was determined via unpaired t-tests coupled with post hoc analysis with Welch’s correction.

## Cn1cc(-c2cnc3ccc(NC(=O)Nc4ccc(F)c(C(F)(F)F)c4)cc3n2)cn1 [51-106, 1-(4-Fluoro-3-(trifluoromethyl)phenyl)-3-(3-(1-methyl-1H-pyrazol-4-yl)quinoxalin-6-yl)urea]
HCT116 MAP3K1 WT cells
  IC50: ~1.8 µM
HCT116 MAP3K1 KO cells; HCT116 MAP3K1 KO versus WT
  increase in IC50 in MAP3K1 KO cells: 5 fold
HCT116 MAP3K1 KO cells; Homo sapiens, HCT-116, 72 h, HCT116 MAP3K1 KO, 72 h, PrestoBlue
  IC50: ~8.9 µM
[1]
  TNFα-induced, MAP3K1-mediated IKKβ phosphorylation (phospho-IKKβ / total IKKβ): inhibits TNFα-induced, MAP3K1-mediated IKKβ phosphorylation in a dose-dependent manner

From paper PMC12073402, “A Selective MAP3K1 Inhibitor Facilitates Discovery of NPM1 as a Member of the Network” (Molecules, 2025)
